From US20250163104A1, “MACROCYCLIC IMMUNOMODULATORS” (priority 2021, published 2025)
Where a SMILES comes first, the peptide text is derived from it. Bridges are numbered along the chain shown (N, C = ends). [ ]: non-standard residue; d: D form. The star is where a group is joined. ξ: configuration not given here. Bip = N[C@@H](Cc1ccc(-c2ccccc2)cc1)C(=O)O; hArg = N=C(N)NCCCC[C@H](N)C(=O)O; Cha = N[C@@H](CC1CCCCC1)C(=O)O; Ile(3ξ) = CCC(C)[C@H](N)C(=O)O; NMeN = CN[C@@H](CC(N)=O)C(=O)O; Thr(3ξ) = CC(O)[C@H](N)C(=O)O; Carboxymethyl = O=C(O)C*; NMeA = CN[C@@H](C)C(=O)O; Nle = CCCC[C@H](N)C(=O)O; Orn = NCCC[C@H](N)C(=O)O; Dab = NCC[C@H](N)C(=O)O; Abu = CC[C@H](N)C(=O)O

Target: T1, human PD-1 / PD-L1-Ig binding on Jurkat cell line over-expressing human PD-1 (Jurkat-PD-1) (Homo sapiens, UniProt Q15116)
T1 construct: expressed in transfected cells; host or cells: Jurkat
T1 sequence (Q15116 25-288): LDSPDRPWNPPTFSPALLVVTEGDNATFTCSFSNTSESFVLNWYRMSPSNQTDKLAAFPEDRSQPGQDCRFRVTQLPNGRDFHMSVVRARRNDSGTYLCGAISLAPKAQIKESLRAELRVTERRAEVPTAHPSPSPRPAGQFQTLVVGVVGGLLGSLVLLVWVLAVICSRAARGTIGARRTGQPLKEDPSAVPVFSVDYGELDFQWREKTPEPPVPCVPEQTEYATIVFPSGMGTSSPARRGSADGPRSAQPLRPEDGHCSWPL
Assay: Jurkat-PD-1 Cell Binding High-Content Screening Assay (CBA)
Type: cell-based
Settings: Jurkat-PD-1 cells, PE-labeled PD-L1-Ig 20 nM final; read-out: Jurkat HPD1_PDL1 IC50
Procedure, shortened: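 Jurkat cells over-expressing human PD-1, in DMEM/10% FCS, pre-incubated with compound 2 h at 37° C. PE-labeled human PD-L1-Ig (20 nM final) added for 1 h; cells fixed in paraformaldehyde with Hoechst 33342 nuclear stain, washed, and bound fluorescence quantified by high-content imaging.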

Row | Compound | IC50 [nM]
1 | CC(C)C[C@H]1NC(=O)[C@H](CCCN)NC(=O)[C@H](CCC(=O)O)NC(=O)[C@H](Cc2ccc(-c3ccccc3)cc2)NC(=O)[C@H](C(C)C)NC(=O)[C@H](Cc2c[nH]c3ccccc23)NC(=O)[C@H](CC(=O)O)NC(=O)[C@H](Cc2ccc(OCC(=O)O)cc2)NC(=O)[C@H](Cc2cnc[nH]2)NC(=O)CSC[C@@H](C(=O)N[C@@H](CC(N)=O)C(N)=O)NC(=O)[C@H](C(C)O)NC(=O)[C@H](C(C)C)NC(=O)[C@H](CC2CCCCC2)NC(=O)[C@H](CCN)NC1=O (stereo partly drawn) [Compound 2562] ({CH2CO}-HY(Carboxymethyl)DWV[Bip]E[Orn][dL][Dab][Cha]V[Thr(3ξ)]CN-NH2; thioether N-14) | 6.5
2 | CC(C)C[C@H]1NC(=O)[C@H](CCCN)NC(=O)[C@H](C(C)C)NC(=O)[C@H](Cc2ccc(-c3ccccc3)cc2)NC(=O)[C@H](C(C)C)NC(=O)[C@H](Cc2c[nH]c3ccccc23)NC(=O)[C@H](CC(=O)O)NC(=O)[C@H](Cc2ccc(OCC(=O)O)cc2)NC(=O)[C@H](Cc2cnc[nH]2)NC(=O)CSC[C@@H](C(=O)N[C@H](C)C(N)=O)NC(=O)[C@H](C(C)O)NC(=O)[C@H](C(C)C)NC(=O)[C@H](CC2CCCCC2)NC(=O)[C@H](CCN)NC1=O (stereo partly drawn) [Compound 2563] ({CH2CO}-HY(Carboxymethyl)DWV[Bip]V[Orn][dL][Dab][Cha]V[Thr(3ξ)]C[dA]-NH2; thioether N-14) | 3
3 | CC[C@H](NC(=O)[C@@H]1CSCC(=O)N[C@@H](Cc2cnc[nH]2)C(=O)N[C@@H](Cc2ccc(OCC(=O)O)cc2)C(=O)N[C@@H](CC(=O)O)C(=O)N[C@@H](Cc2c[nH]c3ccccc23)C(=O)N[C@@H](C(C)C)C(=O)N[C@@H](Cc2ccc(-c3ccccc3)cc2)C(=O)N[C@@H](C(C)C)C(=O)N[C@@H](CCCN)C(=O)N[C@H](CC(C)C)C(=O)N[C@@H](CCN)C(=O)N[C@@H](CC2CCCCC2)C(=O)N[C@@H](C(C)C)C(=O)N[C@@H](CO)C(=O)N1)C(N)=O [Compound 2564] ({CH2CO}-HY(Carboxymethyl)DWV[Bip]V[Orn][dL][Dab][Cha]VSC[Abu]-NH2; thioether N-14) | 18.8
4 | CC(C)C[C@H]1NC(=O)[C@H](CCCN)NC(=O)[C@H](C(C)C)NC(=O)[C@H](Cc2ccc(-c3ccccc3)cc2)NC(=O)[C@H](C(C)C)NC(=O)[C@H](Cc2c[nH]c3ccccc23)NC(=O)[C@H](CC(=O)O)NC(=O)[C@H](Cc2ccc(OCC(=O)O)cc2)NC(=O)[C@H](C(C)O)NC(=O)CSC[C@@H](C(=O)N[C@H](CC(N)=O)C(N)=O)NC(=O)[C@H](CO)NC(=O)[C@H](C(C)C)NC(=O)[C@H](CC2CCCCC2)NC(=O)[C@H](CCN)NC1=O (stereo partly drawn) [Compound 2565] ({CH2CO}-[Thr(3ξ)]Y(Carboxymethyl)DWV[Bip]V[Orn][dL][Dab][Cha]VSC[dN]-NH2; thioether N-14) | 3.3
5 | CC(C)C[C@H]1NC(=O)[C@H](CCCN)NC(=O)CNC(=O)[C@H](Cc2ccc(-c3ccccc3)cc2)NC(=O)[C@H](C(C)C)NC(=O)[C@H](Cc2c[nH]c3ccccc23)NC(=O)[C@H](CC(=O)O)NC(=O)[C@H](Cc2ccc(OCC(=O)O)cc2)NC(=O)[C@H](C(C)O)NC(=O)CSC[C@@H](C(=O)N[C@@H](CC(N)=O)C(N)=O)NC(=O)[C@H](CO)NC(=O)[C@H](C(C)C)NC(=O)[C@H](CC2CCCCC2)NC(=O)[C@H](CCN)NC1=O (stereo partly drawn) [Compound 2566] ({CH2CO}-[Thr(3ξ)]Y(Carboxymethyl)DWV[Bip]G[Orn][dL][Dab][Cha]VSCN-NH2; thioether N-14) | 121
6 | CC(C)C[C@H]1NC(=O)[C@H](CCCN)NC(=O)[C@H](C(C)C)NC(=O)[C@H](Cc2ccc(-c3ccccc3)cc2)NC(=O)[C@H](C(C)C)NC(=O)[C@H](Cc2c[nH]c3ccccc23)NC(=O)[C@H](CC(=O)O)NC(=O)[C@H](Cc2ccc(OCC(=O)O)cc2)NC(=O)[C@H](CCCCNC(=N)N)NC(=O)CSC[C@@H](C(=O)N(C)[C@@H](CC(N)=O)C(N)=O)NC(=O)[C@H](CO)NC(=O)[C@H](C(C)C)NC(=O)[C@H](CC2CCCCC2)NC(=O)[C@H](CCN)NC1=O [Compound 2567] ({CH2CO}-[hArg]Y(Carboxymethyl)DWV[Bip]V[Orn][dL][Dab][Cha]VSC[NMeN]-NH2; thioether N-14) | 23.9
7 | CC(C)C[C@H]1NC(=O)[C@H](CCCN)NC(=O)[C@H](C(C)C)NC(=O)[C@H](Cc2ccc(-c3ccccc3)cc2)NC(=O)[C@H](C(C)C)NC(=O)[C@H](Cc2c[nH]c3ccccc23)NC(=O)[C@H](CC(=O)O)NC(=O)[C@H](Cc2ccc(OCC(=O)O)cc2)NC(=O)[C@H](C(C)O)NC(=O)CSC[C@@H](C(=O)N(C)[C@@H](CC(N)=O)C(N)=O)NC(=O)[C@H](CO)NC(=O)[C@H](C(C)C)NC(=O)[C@H](CC2CCCCC2)NC(=O)[C@H](CCN)NC1=O (stereo partly drawn) [Compound 2568] ({CH2CO}-[Thr(3ξ)]Y(Carboxymethyl)DWV[Bip]V[Orn][dL][Dab][Cha]VSC[NMeN]-NH2; thioether N-14) | 67.1
8 | CC(C)C[C@H]1NC(=O)[C@H](CCCN)NC(=O)[C@H](C(C)C)NC(=O)[C@H](Cc2ccc(-c3ccccc3)cc2)NC(=O)[C@H](C(C)C)NC(=O)[C@H](Cc2c[nH]c3ccccc23)NC(=O)[C@H](CC(=O)O)NC(=O)[C@H](Cc2ccc(OCC(=O)O)cc2)NC(=O)[C@H](CCCCNC(=N)N)NC(=O)CSC[C@@H](C(=O)N(C)[C@@H](C)C(N)=O)NC(=O)[C@H](CO)NC(=O)[C@H](C(C)C)NC(=O)[C@H](CC2CCCCC2)NC(=O)[C@H](CCN)NC1=O [Compound 2569] ({CH2CO}-[hArg]Y(Carboxymethyl)DWV[Bip]V[Orn][dL][Dab][Cha]VSC[NMeA]-NH2; thioether N-14) | 18.5
9 | CC(C)C[C@H]1NC(=O)[C@H](CCCN)NC(=O)[C@H](C(C)C)NC(=O)[C@H](Cc2ccc(-c3ccccc3)cc2)NC(=O)[C@H](C(C)C)NC(=O)[C@H](Cc2c[nH]c3ccccc23)NC(=O)[C@H](CC(=O)O)NC(=O)[C@H](Cc2ccc(OCC(=O)O)cc2)NC(=O)[C@H](C(C)O)NC(=O)CSC[C@@H](C(=O)N(C)[C@@H](C)C(N)=O)NC(=O)[C@H](CO)NC(=O)[C@H](C(C)C)NC(=O)[C@H](CC2CCCCC2)NC(=O)[C@H](CCN)NC1=O (stereo partly drawn) [Compound 2570] ({CH2CO}-[Thr(3ξ)]Y(Carboxymethyl)DWV[Bip]V[Orn][dL][Dab][Cha]VSC[NMeA]-NH2; thioether N-14) | 15.2
10 | CCCC[C@@H]1NC(=O)[C@H](Cc2c[nH]c3ccccc23)NC(=O)[C@H](CC(=O)O)NC(=O)[C@H](Cc2ccc(OCC(=O)O)cc2)NC(=O)[C@H](C(C)O)NC(=O)CSC[C@@H](C(=O)N[C@@H](CC(N)=O)C(=O)O)NC(=O)[C@H](CO)NC(=O)[C@H](C(C)C)NC(=O)[C@H](CC(C)C)NC(=O)[C@H](CCN)NC(=O)[C@@H](CC(C)C)NC(=O)[C@H](CCCN)NC(=O)[C@H](C(C)CC)NC(=O)[C@H](Cc2ccc(-c3ccccc3)cc2)NC1=O (stereo partly drawn) [Compound 2571] ({CH2CO}-[Thr(3ξ)]Y(Carboxymethyl)DW[Nle][Bip][Ile(3ξ)][Orn][dL][Dab]LVSCN-OH; thioether N-14) | 26.1
11 | CCC(C)[C@@H]1NC(=O)[C@H](Cc2ccc(-c3ccccc3)cc2)NC(=O)[C@H](C(C)O)NC(=O)[C@H](Cc2c[nH]c3ccccc23)NC(=O)[C@H](CC(=O)O)NC(=O)[C@H](Cc2ccc(OCC(=O)O)cc2)NC(=O)[C@H](C(C)O)NC(=O)CSC[C@@H](C(=O)N[C@@H](CC(N)=O)C(=O)O)NC(=O)[C@H](CO)NC(=O)[C@H](C(C)C)NC(=O)[C@H](CC(C)C)NC(=O)[C@H](CCN)NC(=O)[C@@H](CC(C)C)NC(=O)[C@H](CCCN)NC1=O (stereo partly drawn) [Compound 2572] ({CH2CO}-[Thr(3ξ)]Y(Carboxymethyl)DW[Thr(3ξ)][Bip][Ile(3ξ)][Orn][dL][Dab]LVSCN-OH; thioether N-14) | 77.4
12 | CCC(C)[C@@H]1NC(=O)[C@H](Cc2c[nH]c3ccccc23)NC(=O)[C@H](CC(=O)O)NC(=O)[C@H](Cc2ccc(OCC(=O)O)cc2)NC(=O)[C@H](C(C)O)NC(=O)CSC[C@@H](C(=O)N[C@@H](CC(N)=O)C(=O)O)NC(=O)[C@H](CO)NC(=O)[C@H](C(C)C)NC(=O)[C@H](CC(C)C)NC(=O)[C@H](CCN)NC(=O)[C@@H](CC(C)C)NC(=O)[C@H](CCCN)NC(=O)[C@H](C(C)CC)NC(=O)[C@H](Cc2ccc(-c3ccccc3)cc2)NC1=O (stereo partly drawn) [Compound 2573] ({CH2CO}-[Thr(3ξ)]Y(Carboxymethyl)DW[Ile(3ξ)][Bip][Ile(3ξ)][Orn][dL][Dab]LVSCN-OH; thioether N-14) | 162
13 | CCC(C)[C@@H]1NC(=O)[C@H](Cc2ccc(-c3ccccc3)cc2)NC(=O)[C@H](Cc2ccccc2)NC(=O)[C@H](Cc2c[nH]c3ccccc23)NC(=O)[C@H](CC(=O)O)NC(=O)[C@H](Cc2ccc(OCC(=O)O)cc2)NC(=O)[C@H](C(C)O)NC(=O)CSC[C@@H](C(=O)N[C@@H](CC(N)=O)C(=O)O)NC(=O)[C@H](CO)NC(=O)[C@H](C(C)C)NC(=O)[C@H](CC(C)C)NC(=O)[C@H](CCN)NC(=O)[C@@H](CC(C)C)NC(=O)[C@H](CCCN)NC1=O (stereo partly drawn) [Compound 2574] ({CH2CO}-[Thr(3ξ)]Y(Carboxymethyl)DWF[Bip][Ile(3ξ)][Orn][dL][Dab]LVSCN-OH; thioether N-14) | 132
14 | CCC(C)[C@@H]1NC(=O)[C@H](Cc2ccc(-c3ccccc3)cc2)NC(=O)[C@H](CC2CCCCC2)NC(=O)[C@H](Cc2c[nH]c3ccccc23)NC(=O)[C@H](CC(=O)O)NC(=O)[C@H](Cc2ccc(OCC(=O)O)cc2)NC(=O)[C@H](C(C)O)NC(=O)CSC[C@@H](C(=O)N[C@@H](CC(N)=O)C(=O)O)NC(=O)[C@H](CO)NC(=O)[C@H](C(C)C)NC(=O)[C@H](CC(C)C)NC(=O)[C@H](CCN)NC(=O)[C@@H](CC(C)C)NC(=O)[C@H](CCCN)NC1=O (stereo partly drawn) [Compound 2575] ({CH2CO}-[Thr(3ξ)]Y(Carboxymethyl)DW[Cha][Bip][Ile(3ξ)][Orn][dL][Dab]LVSCN-OH; thioether N-14) | 60.1
